The values below come from patent publication US20100004221A1, “THIAZEPINE DERIVATIVE” (DAIICHI SANKYO COMPANY, LIMITED, priority 2006, published 2010).

The structures appear in SMILES notation.

T1 sequence (P28845 whole entry): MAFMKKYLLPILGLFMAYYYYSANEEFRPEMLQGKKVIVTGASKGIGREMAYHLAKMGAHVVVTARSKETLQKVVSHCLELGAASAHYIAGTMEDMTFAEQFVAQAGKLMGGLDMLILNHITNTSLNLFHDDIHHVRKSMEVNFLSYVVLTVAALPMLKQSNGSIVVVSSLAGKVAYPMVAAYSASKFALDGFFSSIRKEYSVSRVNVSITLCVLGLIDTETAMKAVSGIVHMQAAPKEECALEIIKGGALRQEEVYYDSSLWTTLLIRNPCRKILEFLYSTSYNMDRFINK

The first series concerns the target T1, human 11β-HSD1 (Homo sapiens, UniProt P28845).
T1 construct: cDNA coding for a full-length of human 11β-HSD1 in a mammal cell expression vector pCIneo; made in house; host or cells: HEK293 cells (transient transfection with pCIneo plasmid); microsome fraction used as enzyme source
Description: 11β-HSD1 enzyme inhibition experiment. Format: biochemical. The following applies: test compound at 39 nM; microsome fraction of HEK293 cells expressing human 11β-HSD1; cortisone 160 nM, room temperature, 3 h; read-out: inhibiting effects on cortisol production dependent on the 11β-HSD1 expressing cells. On the procedure: A plasmid obtained by incorporating cDNA coding for a full-length of human 11β-HSD1 in a mammal cell expression vector pCIneo (Promega Corporation) was introduced into HEK293 cells using Lipofectamine Plus Reagent (Invitrogen Corporation) according to the package insert. 48 h later, cells were collected and frozen at −80° C. Cells into which the pCIneo vector was introduced were prepared as a control. Cells were thawed and suspended in 20 mM HEPES, 1 mM ethylenediamine tetraacetic acid, 2 mM magnesium chloride (final concentrations), and a buffer containing a protease inhibitor cocktail (Roche), and 4.1 Mpa pressure was applied by N2 cavitation on the ice for 30 min to disrupt cells. The disrupted cell suspension was centrifuged at 1000×g at 4° C. for 10 min, and a supernatant thereof was recovered. The obtained supernatant was further ultracentrifuged at 105,000×g at 4° C. for 30 min, and the resulting precipitate was suspended in an assay buffer (50 mM tris buffer, 10% glycerol) as a microsome fraction and used as an enzyme source.
A reaction was performed on a 384-well plate (Greiner Bio One) using a reaction volume of 25 μL, and all the samples were diluted with an assay buffer (50 mM tris buffer, pH 7.4, 10% glycerol). 0.8 mM NADPH, 6 mM glucose 6-phosphate, 0.35 units/mL glucose 6-phosphate dehydrogenase (Sigma Chemical), and 3 mM magnesium chloride and a microsome fraction having a protein amount of 0.7 μg per well (final concentrations) were added to the plate, and a solution containing a test compound dissolved in dimethyl sulfoxide was added at a final concentration of 0.1% and preincubated at room temperature for 15 min. After completion of preincubation, cortisone at a final concentration of 160 nM was added to start a reaction, and the reaction was performed at room temperature for 3 h. 25 μL of 100 mM carbenoxolone (Sigma Chemical) was added to terminate the reaction, and the amount of produced cortisol was measured with Discovery (Hewlett-Packard Company) using a cortisol prototype kit (Cisbio International) according to the package insert.
In the case of `CC1(CO)Cc2nnc(-c3ccc(-c4ccc(F)cc4)cc3Cl)n2CCS1` (centres unmarked) [Example 1, [3-(3-Chloro-4′-fluorobiphenyl-4-yl)-8-methyl-5,6,8,9-tetrahydro[1,2,4]triazolo[4,3-d][1,4]thiazepin-8-yl]methanol], the inhibition at 0.039 µM was 71.8%.
Still for that read-out and setting: to `Cc1c(-c2nnc3n2CCSC(C)(CO)C3)sc2ccc(Cl)cc12` (centres unmarked) [Example 8, [3-(5-Chloro-3-methyl-1-benzothiophen-2-yl)-8-methyl-5,6,8,9-tetrahydro[1,2,4]triazolo[4,3-d][1,4]thiazepin-8-yl]methanol] belongs 67.1%; to `COc1cc(-c2ccc(F)c(Cl)c2)ccc1-c1nnc2n1CCSC(C)(CO)C2` (centres unmarked) [Example 32, [3-(3′-Chloro-4′-fluoro-3-methoxybiphenyl-4-yl)-8-methyl-5,6,8,9-tetrahydro[1,2,4]triazolo[4,3-d][1,4]thiazepin-8-yl]methanol], 35.8%.
The same measure, in the same setting: for `CC1(C2CC2)Cc2nnc(-c3ccccc3Cl)n2CCS1` (centres unmarked) [Example 52, 3-(2-Chlorophenyl)-8-cyclopropyl-8-methyl-5,6,8,9-tetrahydro[1,2,4]triazolo[4,3-d][1,4]thiazepine] the value was 89%.

Tested on in the next series: not given
Experiment: not given
Conditions: not given
A word on the melting point: it is the temperature, or range, at which the solid turns liquid. With `CC1(CO)Cc2nnc(-c3ccc(-c4ccc(F)cc4)cc3Cl)n2CCS1` (centres unmarked) [Example 1, [3-(3-Chloro-4′-fluorobiphenyl-4-yl)-8-methyl-5,6,8,9-tetrahydro[1,2,4]triazolo[4,3-d][1,4]thiazepin-8-yl]methanol], the melting point was in the range of 190 to 193 °C.
Same read-out and setting: to `COc1cc(-c2ccc(F)c(Cl)c2)ccc1-c1nnc2n1CCSC(C)(CO)C2` (centres unmarked) [Example 32, [3-(3′-Chloro-4′-fluoro-3-methoxybiphenyl-4-yl)-8-methyl-5,6,8,9-tetrahydro[1,2,4]triazolo[4,3-d][1,4]thiazepin-8-yl]methanol] belongs 238 to 241 °C; to `CC1(CO)Cc2nnc(-c3cccc4c3ccn4-c3ccc(F)cc3)n2CCS1` (centres unmarked) [Example 43, {3-[1-(4-Fluorophenyl)-1H-indol-4-yl]-8-methyl-5,6,8,9-tetrahydro[1,2,4]triazolo[4,3-d][1,4]thiazepin-8-yl}methanol], 117 to 120 °C.
Same read-out and setting: to `CC1(C)Cc2nnc(-c3ccccc3Cl)n2CCS1` [Example 45, 3-(2-Chlorophenyl)-8,8-dimethyl-5,6,8,9-tetrahydro[1,2,4]triazolo[4,3-d][1,4]thiazepine] belongs 183 to 185 °C; to `Cc1ccccc1-c1nnc2n1CCSC(C)(C)C2` [Example 46, 8,8-Dimethyl-3-(2-methylphenyl)-5,6,8,9-tetrahydro[1,2,4]triazolo[4,3-d][1,4]thiazepine], 106 to 107 °C; to `COc1ccccc1-c1nnc2n1CCSC(C)(C)C2` [Example 47, 8,8-Dimethyl-3-(2-methoxyphenyl)-5,6,8,9-tetrahydro[1,2,4]triazolo[4,3-d][1,4]thiazepine], 141 to 143 °C.
On the same count and under the same terms, for `CCc1ccccc1-c1nnc2n1CCSC(C)(C)C2` [Example 48, 3-(2-Ethylphenyl)-8,8-dimethyl-5,6,8,9-tetrahydro[1,2,4]triazolo[4,3-d][1,4]thiazepine] the value was 125 °C; for `CCOc1ccccc1-c1nnc2n1CCSC(C)(C)C2` [Example 49, 3-(2-Ethoxyphenyl)-8,8-dimethyl-5,6,8,9-tetrahydro[1,2,4]triazolo[4,3-d][1,4]thiazepine], 136 to 137 °C.
`CC1(C)Cc2nnc(-c3ccc(F)cc3Cl)n2CCS1` [Example 50, 3-(2-Chloro-4-fluorophenyl)-8,8-dimethyl-5,6,8,9-tetrahydro[1,2,4]triazolo[4,3-d][1,4]thiazepine] yielded a melting point of 177 to 182 °C.
The same measure, in the same setting: to `COc1cc(-c2cccc(NS(C)(=O)=O)c2)ccc1-c1nnc2n1CCSC(C)(CO)C2` (centres unmarked) [Example 55, N-{4′-[8-(Hydroxymethyl)-8-methyl-5,6,8,9-tetrahydro[1,2,4]triazolo[4,3-d][1,4]thiazepin-3-yl]-3′-methoxybiphenyl-3-yl}methanesulfonamide] belongs 250 to 252 °C.
